Experiments:
Assay in all cases: MIC, liquid turbidimetric microtiter method in brain heart infusion broth
Type in all cases: cell-based
[1] = tested on: Enterococcus faecalis MB 5407
From the text: (§1) The antibacterial activities of compound (VII) against a panel of aerobic Gram positive and negative bacteria is shown in the following Table. The assay employs a liquid turbidimetric microtiter method for the determination of the minimum inhibitory concentration (MIC) in brain heart infusion broth. […] The MIC is generally not an absolute value but rather a concentration ranged that falls within a two-fold dilution limit. Generally twelve two-fold dilutions of the test compound are employed with the initial concentration set at 128 mcg/ml.

[2] = tested on: Enterococcus faecium MB 5416
From the text: as §1

Escherichia coli MB 2884 = tested on: Escherichia coli MB 2884
From the text: as §1

Escherichia coli MB 4926 = tested on: Escherichia coli MB 4926
From the text: as §1

[3] = tested on: Klebsiella pneumoniae MB 4005
From the text: as §1

[4] = tested on: Pseudomonas stutzeri MB 1231
From the text: as §1

[5] = tested on: Staphylococcus aureus MB 2865
From the text: as §1

[6] = tested on: Staphylococcus epidermidis MB 5414
From the text: as §1

[7] = tested on: Staphylococcus haemolyticus MB 5412
From the text: as §1

[8] = tested on: Steptococcus viridans CL 2943
From the text: as §1

[9] = tested on: Streptococcus agalactiae CL 1343
From the text: as §1

[10] = tested on: Streptococcus pneumoniae CL 2883
From the text: as §1

[11] = tested on: Streptococcus pyogenes MB 2874
From the text: as §1

[12] = tested on: Streptococcus pyogenes MB 5406
From the text: as §1

[13] = tested on: Yersinia enterocoltica CL 1598
From the text: as §1

Question: How did the “MIC Values” [1] turn out when `CC[C@H]1OC(=O)[C@H](C)[C@@H](O[C@H]2C[C@@](C)(OC)[C@@H](O)[C@H](C)O2)[C@H](C)[C@@H](O[C@@H]2O[C@H](C)C[C@H](N(C)C)[C@H]2O)[C@](C)(O)C[C@@H](C)N=C2O[C@@]1(C)[C@H](O)[C@H]2C` [Compound (VII), 9-Deoxo-12-deoxy-9,12-epoxy-8a,9-didehydro-8a-aza-8a-homoerythromycin A] was run?
Answer: 32 mcg/m

Question: And the “MIC Values” [2]?
Answer: 8 mcg/m

Question: And the “MIC Values” (Escherichia coli MB 2884)?
Answer: 128 mcg/m

Question: And the “MIC Values” (Escherichia coli MB 4926)?
Answer: 8 mcg/m

Question: And the “MIC Values” [3]?
Answer: >128 mcg/m

Question: What about the “MIC Values” [4] of the same compound?
Answer: 0.5 mcg/m

Question: What about the “MIC Values” [5] of the same compound?
Answer: 16 mcg/m

Question: And the “MIC Values” [6]?
Answer: 32 mcg/m

Question: What about the “MIC Values” [7] of the same compound?
Answer: 8 mcg/m

Question: What about the “MIC Values” [8] of the same compound?
Answer: 16 mcg/m

Question: What about the “MIC Values” [9] of the same compound?
Answer: 1 mcg/m

Question: And the “MIC Values” [10]?
Answer: 0.5 mcg/m

Question: What about the “MIC Values” [11] of the same compound?
Answer: 1 mcg/m

Question: And the “MIC Values” [12]?
Answer: 128 mcg/m

Question: What about the “MIC Values” [13] of the same compound?
Answer: 128 mcg/m

Source: EP0508725A1, “Novel process for the preparation of 8a-aza-8a-homoerythromycin cyclic iminoethers” (MERCK & CO. INC., priority 1991, dated 1992)
